In patent US9204653B2, “5-fluoro pyrimidine derivatives” (DOW AGROSCIENCES LLC, priority 2008, dated 2015) one finds pest or weed control data, which are given here for 19 compounds.

The structures appear in SMILES notation. Like-named read-outs stand apart in the source and are kept apart here.

Assay [1] relates to Mycosphaerella graminicola; Anamorph: Septoria tritici; Bayer Code SEPTTR. In words: Leaf blotch of wheat, foliar fungicide treatment, one day protectant (1DP) or three day curative (3DC). The settings on record: Zymoseptoria tritici. The class given is in vivo, Septoria tritici on wheat plants (variety Yuma).
The subject of assay [2] is Cercospora beticola; Bayer Code CERCBE. Nature of the assay: Leaf spot of sugar beets. The class given is in vivo, Cercospora beticola on sugar beets (variety HH-88). Particulars: 24 h, % disease control rating, one day protectant; for pest or weed control at 25 ppm: read-out: CERCBE 1 DP 25 ppm; for pest or weed control at 75 ppm: read-out: CERCBE 1 DP 75 ppm.
The test system of assay [3] is Venturia inaequalis; Bayer Code VENTIN. Nature of the assay: Apple scab. The class given is in vivo. The settings on record: 24 h, % disease control rating, one day protectant; for pest or weed control at 25 ppm: read-out: VENTIN 1 DP 25 ppm; for pest or weed control at 75 ppm: read-out: VENTIN 1 DP 75 ppm.
Where [4] appears, read: 24 h, one day protectant (1DP), rating of percent disease control, read-out: SETTTR 1DP 25 ppm.
Where [5] appears, read: 24 h, one day protectant (1DP), rating of percent disease control, read-out: SEPTTR 1DP 100 ppm.
Setting [6] is: 72 h, three day curative (3DC), rating of percent disease control, read-out: SEPTTR 3DC 25 ppm.
The mark [7] stands for this setting: 72 h, three day curative (3DC), rating of percent disease control, read-out: SEPTTR 3DC 100 ppm.
Where [8] appears, read: 24 h, one day protectant, rating of percent disease control, read-out: SETTTR 1DP 25 ppm.
[9] abbreviates: 24 h, one day protectant, rating of percent disease control, read-out: SEPTTR 1DP 100 ppm.
The mark [10] stands for this setting: 72 h, three day curative, rating of percent disease control, read-out: SEPTTR 3DC 25 ppm.
Where [11] appears, read: 72 h, three day curative, rating of percent disease control, read-out: SEPTTR 3DC 100 ppm.
The mark [12] stands for this setting: 24 h, one day protectant (1DP), percent disease control rating, read-out: SETTTR 1DP 25 ppm.
[13] abbreviates: 24 h, one day protectant (1DP), percent disease control rating, read-out: SEPTTR 1DP 100 ppm.
Where [14] appears, read: 72 h, three day curative (3DC), percent disease control rating, read-out: SEPTTR 3DC 25 ppm.
Where [15] appears, read: 72 h, three day curative (3DC), percent disease control rating, read-out: SEPTTR 3DC 100 ppm.
[16] abbreviates: 24 h, % disease control rating, one day protectant.

Consider `CC(Oc1ncc(F)c(N)n1)c1cccc2ccccc12` (stereo not shown) [Compound 335], for which the pest or weed control at 25 ppm in assay [1] (setting [4]) fell in the range of 76 to 100%; in assay [1] (setting [6]), 76 to 100%; in assay [2] it was 26 to 50%; in assay [3], 76 to 100%. In addition, the pest or weed control at 100 ppm in assay [1] (setting [5]) and in assay [1] (setting [7]) was 76 to 100% each time. Further, the pest or weed control at 75 ppm in assay [2] and in assay [3] was 76 to 100% throughout.

In the case of `CC(=O)Nc1nc(OCCNc2ccccc2)ncc1F` [Compound 214], the pest or weed control at 25 ppm lay within 0 to 25% in assay [1] (setting [4]), 0 to 25% in assay [1] (setting [6]), 51 to 75% in assay [2] and 76 to 100% in assay [3]. Also, the pest or weed control at 100 ppm in assay [1] (setting [5]) and in assay [1] (setting [7]) was 0 to 25% throughout. The pest or weed control at 75 ppm lay in the range of 51 to 75% in assay [2] and 76 to 100% in assay [3].

`CC(Oc1ncc(F)c(N)n1)c1ccc(C(F)(F)F)nc1` (stereo not shown) [Compound 356]: the pest or weed control at 25 ppm in assay [1] (setting [4]) fell in the range of 26 to 50%; in assay [1] (setting [6]), 26 to 50%; in assay [2], 51 to 75%; in assay [3] it was 51 to 75%. In addition, the pest or weed control at 100 ppm in assay [1] (setting [5]) and in assay [1] (setting [7]) was 51 to 75% each time. Also, the pest or weed control at 75 ppm in assay [2] was in the range of 0 to 25%; in assay [3] it was 26 to 50%.

With `Nc1nc(OCc2cc3ccccc3o2)ncc1F` [Compound 554], the pest or weed control at 25 ppm lay in the range of 26 to 50% in assay [1] (setting [8]), 26 to 50% in assay [1] (setting [10]), 0 to 25% in assay [2] and 76 to 100% in assay [3]. Besides, the pest or weed control at 100 ppm in assay [1] (setting [9]) and in assay [1] (setting [11]) was 76 to 100% throughout. The values for the pest or weed control at 75 ppm in assay [2] and in assay [3] were 51 to 75% and 76 to 100%, respectively.

Turning to `Fc1cnc(OCc2ccccc2)nc1NNc1ccccn1` [Compound 373], the pest or weed control at 25 ppm in assay [1] (setting [4]) is 0 to 25%; in assay [1] (setting [6]) it was 26 to 50%; in assay [2], 0 to 25%; in assay [3] it was 0 to 25%. The pest or weed control at 100 ppm is 0 to 25% in assay [1] (setting [5]) and 51 to 75% in assay [1] (setting [7]). Moreover, the results for the pest or weed control at 75 ppm in assay [2] and in assay [3] were 0 to 25% and 26 to 50%, respectively.

`CCCNC(=O)Nc1nc(OCc2cccc(C#N)c2)ncc1F` [Compound 163]: the pest or weed control at 25 ppm in assay [1] (setting [12]), in assay [1] (setting [14]), in assay [2] and in assay [3] was 0 to 25% in each case. In addition, the pest or weed control at 100 ppm in assay [1] (setting [13]) and in assay [1] (setting [15]) was 0 to 25% throughout. Further, the pest or weed control at 75 ppm in assay [2] is 0 to 25%; in assay [3], 26 to 50%.

`Nc1nc(OCc2ccc(F)cc2C(F)(F)F)ncc1F` [Compound 271]: the pest or weed control at 25 ppm in assay [1] (setting [4]) was 76 to 100%; in assay [1] (setting [6]), 51 to 75%; in assay [2] it was 26 to 50%; in assay [3], 26 to 50%. For the same compound, the pest or weed control at 100 ppm in assay [1] (setting [5]) and in assay [1] (setting [7]) was 76 to 100% throughout. The pest or weed control at 75 ppm in assay [2] was in the range of 26 to 50%; in assay [3], 51 to 75%.

On to `CCn1nccc1Oc1ncc(F)c(N)n1` [Compound 584], for which the pest or weed control at 25 ppm lay within 0 to 25% in assay [1] (setting [8]), 0 to 25% in assay [1] (setting [10]), 26 to 50% in assay [2] and 26 to 50% in assay [3]. The pest or weed control at 100 ppm in assay [1] (setting [9]) and in assay [1] (setting [11]) was 76 to 100% each time. The pest or weed control at 75 ppm in assay [2] and in assay [3] was 26 to 50% throughout.

For the compound `Nc1nc(OCCSc2ccc(Cl)cc2)ncc1F` [Compound 719], the pest or weed control at 25 ppm in assay [1] (setting [8]) is 0 to 25%; in assay [2], 0 to 25%; in assay [3], 51 to 75%. Further, in assay [1] (setting [9]), the pest or weed control at 100 ppm is 51 to 75%. Moreover, the pest or weed control at 75 ppm lay within 26 to 50% in assay [2] and 51 to 75% in assay [3].

In assay [1] (setting [16]), `Fc1cnc(OCc2ccccn2)nc1NC1CC1` [Compound 952] gave a pest or weed control at 200 ppm of 26 to 50%. In assay [2], the pest or weed control at 25 ppm was in the range of 0 to 25% and the pest or weed control at 75 ppm was in the range of 0 to 25%. In addition, in assay [3], the pest or weed control at 25 ppm is 0 to 25% and the pest or weed control at 75 ppm was 0 to 25%.

Consider `COc1cccc(COc2ncc(F)c(NCO)n2)c1` [Compound 741], for which the pest or weed control at 25 ppm lay within 26 to 50% in assay [1] (setting [4]), 76 to 100% in assay [1] (setting [6]), 0 to 25% in assay [2] and 51 to 75% in assay [3]. The pest or weed control at 100 ppm in assay [1] (setting [5]) and in assay [1] (setting [7]) was 76 to 100% in each case. Besides, the pest or weed control at 75 ppm lay in the range of 0 to 25% in assay [2] and 76 to 100% in assay [3].

Consider `Cc1oc(-c2ccccc2)cc1COc1ncc(F)c(N)n1` [Compound 251], for which the pest or weed control at 25 ppm was in the range of 76 to 100% in assay [1] (setting [4]), 76 to 100% in assay [1] (setting [6]), 0 to 25% in assay [2] and 76 to 100% in assay [3]. The pest or weed control at 100 ppm in assay [1] (setting [5]) and in assay [1] (setting [7]) was 76 to 100% each time. For the same compound, the pest or weed control at 75 ppm in assay [2] was in the range of 51 to 75%; in assay [3], 76 to 100%.

Regarding `O=C(Nc1nc(OCc2cccc(F)c2)ncc1F)c1ccccc1` [Compound 158], the pest or weed control at 25 ppm fell in the range of 76 to 100% in assay [1] (setting [12]), 76 to 100% in assay [1] (setting [14]), 0 to 25% in assay [2] and 51 to 75% in assay [3]. Besides, the pest or weed control at 100 ppm in assay [1] (setting [13]) and in assay [1] (setting [15]) was 76 to 100% throughout. In addition, the pest or weed control at 75 ppm in assay [2] is 0 to 25%; in assay [3] it was 51 to 75%.

For the compound `Fc1ccc(COc2ccc(F)c(NC(=S)Nc3ccccc3F)c2)cc1` [Compound 135], the pest or weed control at 25 ppm lay in the range of 76 to 100% in assay [1] (setting [12]), 51 to 75% in assay [1] (setting [14]), 26 to 50% in assay [2] and 51 to 75% in assay [3]. In addition, the pest or weed control at 100 ppm in assay [1] (setting [13]) and in assay [1] (setting [15]) was 76 to 100% throughout. The pest or weed control at 75 ppm in assay [2] lay within 26 to 50%; in assay [3], 51 to 75%.

With `Cn1nc(C(F)(F)F)c(COc2ncc(F)c(N)n2)c1Cl` [Compound 211], the pest or weed control at 25 ppm in assay [1] (setting [4]) lay within 76 to 100%; in assay [1] (setting [6]), 76 to 100%; in assay [2], 0 to 25%; in assay [3], 26 to 50%. For the same compound, the pest or weed control at 100 ppm in assay [1] (setting [5]) and in assay [1] (setting [7]) was 76 to 100% in each case. In addition, the pest or weed control at 75 ppm in assay [2] lay within 0 to 25%; in assay [3], 51 to 75%.

In the case of `CC(Oc1ncc(F)c(/N=C/N(C)C)n1)c1ccc(F)cc1` (stereo not shown) [Compound 483], the pest or weed control at 25 ppm in assay [1] (setting [4]) lay in the range of 76 to 100%; in assay [1] (setting [6]), 76 to 100%; in assay [2], 0 to 25%; in assay [3], 26 to 50%. Besides, the pest or weed control at 100 ppm in assay [1] (setting [5]) and in assay [1] (setting [7]) was 76 to 100% in each case. Further, the values for the pest or weed control at 75 ppm in assay [2] and in assay [3] were 0 to 25% and 76 to 100%, respectively.

As for `C=CC(C)Oc1ncc(F)c(N)n1` (stereo not shown) [Compound 631], the pest or weed control at 25 ppm in assay [1] (setting [8]), in assay [1] (setting [10]), in assay [2] and in assay [3] was 0 to 25% each time. Also, the pest or weed control at 100 ppm in assay [1] (setting [9]) and in assay [1] (setting [11]) was 0 to 25% each time. For the same compound, the pest or weed control at 75 ppm in assay [2] lay within 0 to 25%; in assay [3], 26 to 50%.

With `Fc1cnc(OCc2cccs2)nc1NCc1ccc2c(c1)OCO2` [Compound 804], in assay [1] (24 h, % disease control rating, one day protectant, 50 ppm), the pest or weed control at 50 ppm fell in the range of 26 to 50%. The pest or weed control at 200 ppm in assay [1] (setting [16]) was in the range of 51 to 75%. Moreover, in assay [2], the pest or weed control at 25 ppm was 0 to 25% and the pest or weed control at 75 ppm lay in the range of 0 to 25%. Besides, in assay [3], the pest or weed control at 25 ppm fell in the range of 0 to 25% and the pest or weed control at 75 ppm lay within 0 to 25%.

`CN(C)/C=N/c1nc(OCCNc2ccccc2)ncc1F` [Compound 248]: the pest or weed control at 25 ppm was 0 to 25% in assay [1] (setting [4]), 76 to 100% in assay [1] (setting [6]), 0 to 25% in assay [2] and 0 to 25% in assay [3]. The pest or weed control at 100 ppm in assay [1] (setting [5]) and in assay [1] (setting [7]) was 76 to 100% throughout. In addition, the pest or weed control at 75 ppm in assay [2] was in the range of 0 to 25%; in assay [3] it was 51 to 75%.
